Molecules are shown by their SMILES.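 Results reflect a 48-hour exposure of cells in 96-well plates to compound at five concentrations. GI50 = concentration required for 50% inhibition of growth. TGI marks complete inhibition of growth.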

Common to all, as to assay: NCI-60 cell line screen, 48 h
The test system of experiment [1] is DMS 273 small cell lung.
For experiment [2], the system named is KM12 colon.
Experiment [3] has as its system KM20L2 colon.
Experiment [4] has as its system M19-MEL melanoma.
Experiment [5] deals with SK-MEL-5 melanoma.
Experiment [6] deals with SNB-78 CNS.
Experiment [7] has as its system UACC-62 melanoma.
For experiment [8], the system named is RPMI-8226 leukemia.
The test system of experiment [9] is DMS 114 small cell lung.
For experiment [10], the system named is T-47D breast.

Consider `Cc1cc(C)c2[s+]snc2c1`, for which the TGI in [1], in [2], in [3], in [4], in [5] and in [6] was above 100 µM in each case. For the same compound, the TGI in [7] was above 100 µM.
Turning to `CCc1oc2ccc(OC)c3c2c1C=CC=C3`, the TGI in [1], in [2], in [4], in experiment [8], in [5] and in experiment [6] was above 100 µM throughout. The TGI in [7] is above 100 µM.
Take `CC(C)[O-].CC(C)[O-].[O-]c1cccc2cccnc12.[O-]c1cccc2cccnc12.[Ti+4]`: the GI50 is 21 µM in experiment [2], 25.2 µM in experiment [5] and 28.5 µM in [7]. The TGI in [2] is 50 µM; in experiment [3], above 100 µM; in experiment [7] it was above 100 µM.
For the compound `CCOC(=O)CNC(=O)C(CSC(=O)N(C)O)NC(=O)CCC(N)C(=O)O` (configuration not stated), the GI50 in experiment [9], in experiment [1], in [2], in experiment [3], in experiment [4] and in experiment [8] was above 2000 µM in each case. For the same compound, the GI50 in experiment [5] and in experiment [7] was above 2000 µM each time. The TGI in experiment [2], in experiment [3], in experiment [4], in experiment [8], in experiment [5] and in [7] was above 2000 µM in each case.
For `C[C@]12CCCC(=O)C1C[C@H](C(=O)O)CC2` (some centres not stated), the TGI in [9], in experiment [1], in experiment [2], in experiment [3], in [4] and in experiment [8] was above 100 µM throughout. The TGI in [7] is above 100 µM.
With `O=C1CCC(=O)C(C(=O)CCC(=O)Nc2cccc(Cl)c2)C1` (configuration not stated), the TGI in experiment [2], in [3], in [4], in experiment [8], in experiment [5] and in experiment [7] was above 100 µM in each case.
Regarding `N#C/C(=C\c1ccc(O)cc1O)C(N)=O`, the TGI in experiment [1], in experiment [2], in experiment [3], in experiment [4], in experiment [8] and in experiment [6] was above 100 µM each time. The same compound gave a TGI in experiment [7] above 100 µM.
As for `CC(C)(C)C(=O)[CH-]C(=O)C(F)(F)C(F)(F)C(F)(F)F.CC(C)(C)C(=O)[CH-]C(=O)C(F)(F)C(F)(F)C(F)(F)F.[O-]CC1OC(O)C(O)C(O)C1O.[O-]CC1OC(O)C(O)C(O)C1O.[Ti+4]`, the GI50 in experiment [9], in [3] and in experiment [4] was above 100 µM in each case. The TGI in experiment [9], in experiment [2], in experiment [3], in experiment [4], in [8] and in experiment [5] was above 100 µM each time. For the same compound, the TGI in experiment [7] was above 100 µM.
As to `COC(=O)C(=O)C1CCCCC(C2=NC3NN=C(N)N3C2=O)C1=O` (configuration not stated), the TGI in [9], in [1], in [2], in [3], in [4] and in experiment [5] was above 100 µM each time. Also, in [7], the TGI is above 100 µM.
Turning to `COc1cc(C2C(C#N)=C(N)Oc3cc4c(cc32)OCO4)cc2c1OCO2` (configuration not stated), the GI50 in [2] is 0.206 µM; in [8], 0.406 µM; in [5], 0.101 µM; in experiment [10], 3.38 µM; in experiment [7], 0.285 µM. Moreover, the TGI was above 46.6 µM in experiment [2]; above 71 µM in experiment [8]; 14.3 µM in experiment [5]; above 100 µM in experiment [10]; above 100 µM in [7].
As for `C[C@@H](Oc1cc(-c2cnn(C3CC4(CCCNC4)C3)c2)cnc1N)c1c(Cl)ccc(F)c1Cl` (some centres not stated), the GI50 in experiment [2] was 0.0485 µM; in experiment [8], 1.9 µM; in experiment [5], 1.5 µM; in experiment [10] it was 1.61 µM; in [7], 1.58 µM. For the same compound, the TGI in experiment [2] was 1.32 µM; in experiment [8], 5.05 µM; in experiment [5] it was 2.87 µM; in experiment [10], 3.42 µM; in experiment [7], 3.09 µM.
With `CNCCOc1nc2c3cnccc3cc(-c3cc(OC)c(OC)c(OC)c3)c2c2ccncc12`, the GI50 in experiment [2] is 0.0536 µM; in experiment [8], 0.0229 µM; in experiment [5], 0.0288 µM; in [10], 0.0296 µM; in experiment [7] it was 0.027 µM. Besides, the TGI in [2] is 2.52 µM; in experiment [8] it was 0.113 µM; in [5], 0.144 µM; in experiment [10], 0.48 µM; in experiment [7] it was 0.169 µM.
For the compound `COc1ccc(C2C3=C(COC3=O)N(CCO)c3cc4c(cc32)OCCO4)cc1OC` (configuration not stated), the GI50 in [2] was 1.35 µM; in experiment [8], 1.91 µM; in [5], 0.906 µM; in experiment [10], 2.17 µM. The TGI in experiment [2] is above 38.7 µM; in [8], above 12.6 µM; in [5], above 50 µM; in [10], above 50 µM; in [7], above 50 µM.
With `N#Cc1c(Oc2ccc(F)c(NC(=O)Cc3cccc(C(F)(F)F)c3)c2)ccc2nc(NC(=O)C3CC3)sc12`, the GI50 in experiment [2] was 0.765 µM; in experiment [8], 0.72 µM; in experiment [5] it was 0.206 µM; in experiment [10] it was 3.22 µM; in experiment [7] it was 0.0262 µM. The TGI was above 100 µM in experiment [2], above 100 µM in experiment [8], 8.6 µM in [5] and above 100 µM in experiment [10].
For `Oc1[nH]c2ccc(Cl)cc2c1/C=c1/ccc2c(c1)N=C(c1cc(F)cc(F)c1)N=2`, the GI50 was 3.55 µM in experiment [2]; 3.31 µM in [8]; 4.07 µM in experiment [5]; 4.47 µM in [10]; 3.43 µM in [7]. In addition, the TGI in [2], in [8], in [5], in experiment [10] and in experiment [7] was above 100 µM throughout.
Regarding `CC(C)N(C[C@H]1O[C@@H](n2cnc3c(N)ncnc32)[C@H](O)[C@@H]1O)C1CC(CCc2nc3ccc(C(C)(C)C)cc3[nH]2)C1` (some centres not stated), the GI50 in [2] was above 100 µM; in experiment [8] it was 46 µM; in experiment [5] it was above 95.1 µM; in experiment [10], 68.5 µM; in experiment [7] it was 99.7 µM. Moreover, the TGI in experiment [2], in experiment [8], in experiment [5], in [10] and in experiment [7] was above 100 µM in each case.
On to `CON`, for which the GI50 in [2], in experiment [8], in [5], in experiment [10] and in experiment [7] was above 100 µM throughout. Moreover, the TGI in [2], in experiment [8], in [5], in [10] and in experiment [7] was above 100 µM in each case.
For `CC1(C)CC2CC(C)(CN2c2ncnc3ccc(Br)cc23)C1` (configuration not stated), the GI50 in experiment [2] was 11.1 µM; in experiment [8] it was 2.58 µM; in experiment [5], 8.88 µM; in experiment [10], 13 µM; in [7], 5.76 µM. Further, the TGI was 26.5 µM in experiment [2]; 13.5 µM in experiment [8]; 21.6 µM in [5]; 31.2 µM in experiment [10]; 19.5 µM in experiment [7].
On to `Cc1c(N2C(=O)/C(=C\c3ccc(N(C)C)cc3)N=C2c2ccccc2)c(=O)n(-c2ccccc2)n1C`, for which the GI50 in [2] was 77.8 µM; in [8], 25.6 µM; in experiment [5], 36.3 µM; in experiment [10], 19.3 µM; in experiment [7], above 100 µM. Further, the TGI in experiment [2] was above 100 µM; in [8] it was above 92 µM; in [5] it was above 100 µM; in experiment [10], above 87.2 µM; in [7], above 100 µM.
On to `O=C1c2ccccc2C(=O)c2c(NC(=O)c3ccc4c5c(ncnc35)-c3ccccc3C4=O)cccc21`, for which the TGI in [2], in experiment [8], in experiment [5], in [10] and in [7] was above 100 µM in each case.
As to `CC(=O)N[C@@H](Cc1ccc(OP(=O)(O)O)cc1)C(=O)N[C@H]1CCC(=O)N2CCC[C@@H](C(=O)NCc3ccc(O)cc3)N2C1=O`, the GI50 in experiment [2], in [8], in [5], in experiment [10] and in experiment [7] was above 25 µM throughout. Further, the TGI in experiment [2], in experiment [8], in [5], in experiment [10] and in experiment [7] was above 25 µM throughout.
Regarding `O=[N+]([O-])c1ccc(-c2ccccc2)c([As](=O)(O)O)c1`, the GI50 in experiment [2] is 39.4 µM; in experiment [8], 15.2 µM; in [5], 40.6 µM; in [10] it was 4.35 µM; in experiment [7], 22.5 µM. The TGI in [2] was above 100 µM; in experiment [8], 62.9 µM; in experiment [5] it was above 100 µM; in experiment [10], 49.5 µM; in experiment [7] it was above 100 µM.
For the compound `CN(C)CCOc1nc2ccccc2c2c1-c1ccc(Cl)cc1C2=O`, the GI50 in experiment [2] is 0.441 µM; in [8], 0.617 µM; in experiment [5], 1.36 µM; in [10], 1.53 µM; in experiment [7], 1.38 µM. For the same compound, the TGI in [2] stood at 1.57 µM; in [8], 2.35 µM; in experiment [5], 2.67 µM; in experiment [10], 4.55 µM; in [7] it was 2.93 µM.
Consider `COc1ccc(-c2cncn2-c2cc(OC)c(OC)c(OC)c2)cc1F`, for which the GI50 in experiment [2] was below 0.01 µM; in experiment [8] it was below 0.01 µM; in experiment [5], below 0.01 µM; in [10], below 0.01 µM; in [7] it was below 0.0117 µM. The TGI in [2] was above 49.8 µM; in experiment [8], 12.2 µM; in [5], 13.1 µM; in [10], above 100 µM; in experiment [7], above 100 µM.
Regarding `N#CC[C@H](C1CCCC1)n1cc(-c2ncnc3[nH]ccc23)cn1`, the GI50 in experiment [2] is 2.71 µM; in experiment [8], 36 µM; in experiment [5] it was 17.2 µM; in experiment [10], 23.8 µM; in experiment [7], 37 µM. The TGI in experiment [2] was above 62.6 µM; in [8], above 100 µM; in experiment [5], 49 µM; in [10], above 91.1 µM; in [7], above 100 µM.
As to `CCOC(=O)C(Cc1ccc(OC)cc1)C(=O)OCC`, the GI50 in [2] is 3.01 µM; in experiment [8], 3.05 µM; in [5], 3.65 µM; in [10], 2.8 µM; in experiment [7], 4.66 µM. Besides, the TGI in experiment [2] stood at 9.85 µM; in experiment [8], 14.3 µM; in experiment [5] it was 15.3 µM; in experiment [10], 12.4 µM; in experiment [7], 17.3 µM.
As for `CC[O-].CC[O-].O=C([CH-]C(=O)c1ccccc1)c1ccccc1.O=C([CH-]C(=O)c1ccccc1)c1ccccc1.[Ti+4]`, the GI50 is above 100 µM in experiment [2]; above 100 µM in [3]; 45.4 µM in experiment [8]; above 100 µM in [5]; above 100 µM in experiment [7]. The TGI in [2], in experiment [3], in [8], in experiment [5] and in [7] was above 100 µM throughout.
Regarding `Cc1cccc(N=C2NC(=O)C(CC(=O)Nc3ccc(Cl)cc3C)S2)c1` (configuration not stated), the TGI in experiment [9], in experiment [1], in [2], in [3], in experiment [4] and in experiment [8] was above 100 µM each time. For the same compound, the TGI in experiment [5] and in [7] was above 100 µM in each case.

Source of the values: PubChem BioAssay (NCI).
